Assay [1] addresses T1, recombinant human JAK1 kinase domain protein (Residues 854-1154) (Homo sapiens, UniProt P23458).
T1 construct: human JAK1 kinase domain protein (Residues 854-1154); purchased Proteros Biostructures GmbH (Martinsried, Germany); host or cells: insect cells
Put plainly: JAK1 biochemical assay (LabChip mobility shift, Ki). Conditions: read-out: Biochem JAK1 Ki.

Assay [2] relates to IL-13-stimulated STAT6 phosphorylation in human lung bronchial epithelial BEAS-2B cell line. Put plainly: P-STAT6 BEAS-2B + IL-13 cell assay. Format: cell-based. The conditions noted are these: Homo sapiens, BEAS-2B, BEAS2B cells, IL13 stimulation; read-out: Cellular JAK1 PSTAT6 BEAS2B + IL13. Put shortly:
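Phospho-STAT6 (Tyr641) was quantified in lysates by MSD electrochemiluminescence after human IL-13 challenge (250 ng/mL stock, 15 min, 37 °C). Before that, BEAS-2B cells cultured 48 h had 1 h compound exposure over 10 concentrations. Percent of control was fitted to a four-parameter logistic model to give IC50.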

Assay [3] has as its target Recombinant human JAK2 kinase domain protein (Residues 812-1132) (Homo sapiens, UniProt O60674). In words: JAK2 biochemical assay (LabChip mobility shift, Ki). The conditions noted are these: Biochem JAK2 Ki.

Chain of Recombinant human JAK2 kinase domain protein (Residues 812-1132) (O60674 812-1132): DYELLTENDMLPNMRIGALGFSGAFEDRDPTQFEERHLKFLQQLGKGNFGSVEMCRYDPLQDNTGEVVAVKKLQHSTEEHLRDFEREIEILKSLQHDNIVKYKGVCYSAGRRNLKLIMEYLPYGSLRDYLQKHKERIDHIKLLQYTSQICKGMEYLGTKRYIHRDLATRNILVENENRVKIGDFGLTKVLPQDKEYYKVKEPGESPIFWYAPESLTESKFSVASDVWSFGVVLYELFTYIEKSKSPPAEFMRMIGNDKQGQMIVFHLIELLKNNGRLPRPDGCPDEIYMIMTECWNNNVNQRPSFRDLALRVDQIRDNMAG
T1 sequence (P23458 854-1154): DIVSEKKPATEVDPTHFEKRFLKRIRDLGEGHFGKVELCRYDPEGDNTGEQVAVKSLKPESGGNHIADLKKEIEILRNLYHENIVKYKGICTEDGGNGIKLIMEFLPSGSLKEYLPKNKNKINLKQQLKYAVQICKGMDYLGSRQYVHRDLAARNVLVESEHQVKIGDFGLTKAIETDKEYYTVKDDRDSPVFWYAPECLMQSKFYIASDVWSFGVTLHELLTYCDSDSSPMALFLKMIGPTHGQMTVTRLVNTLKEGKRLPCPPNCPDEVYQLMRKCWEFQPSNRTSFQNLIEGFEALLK

With `CC(N)c1cccc(Oc2ccc(OC(F)F)c(-c3n[nH]cc3NC(=O)c3cnn4cccnc34)c2)c1` (stereo not drawn) [Example 14, N-[3-[5-[3-(1-aminoethyl)phenoxy]-2-(difluoromethoxy)phenyl]-1H-pyrazol-4-yl]pyrazolo[1,5-a]pyrimidine-3-carboxamide], the inhibition constant Ki in assay [1] was found to be 0.25 nM; in assay [3], 0.38 nM. In addition, the IC50 in assay [2] was 26 nM.
Take `CNCc1cccc(Oc2ccc(OC(F)F)c(-c3n[nH]cc3NC(=O)c3cnn4cccnc34)c2)c1` [Example 15, N-[3-[2-(difluoromethoxy)-5-[3-(methylaminomethyl)phenoxy]phenyl]-1H-pyrazol-4-yl]pyrazolo[1,5-a]pyrimidine-3-carboxamide]: the inhibition constant Ki was found to be 0.32 nM in assay [1] and 0.4 nM in assay [3]. Moreover, in assay [2], the IC50 came out at 24 nM.
With `O=C(Nc1c[nH]nc1-c1cc(Oc2cccc(CNCCO)c2)ccc1OC(F)F)c1cnn2cccnc12` [Example 16, N-[3-[2-(difluoromethoxy)-5-[3-[(2-hydroxyethylamino)methyl]phenoxy]phenyl]-1H-pyrazol-4-yl]pyrazolo[1,5-a]pyrimidine-3-carboxamide], the Ki in assay [1] was 0.22 nM; in assay [3] it was 0.19 nM. Moreover, in assay [2], the IC50 was found to be 170 nM.
Consider `Cc1ccc(Oc2ccc(OC(F)F)c(-c3n[nH]cc3NC(=O)c3cnn4cccnc34)c2)cc1CC(=O)N(C)C` [Example 17, N-[3-[2-(difluoromethoxy)-5-[3-[2-(dimethylamino)-2-oxo-ethyl]-4-methyl-phenoxy]phenyl]-1H-pyrazol-4-yl]pyrazolo[1,5-a]pyrimidine-3-carboxamide], for which the inhibition constant (Ki) in assay [1] amounted to 0.42 nM; in assay [3] it was 0.21 nM. Besides, in assay [2], the IC50 was determined as 26 nM.
For the molecule `O=C(Nc1c[nH]nc1-c1cc(Oc2ccc3c(c2)CNCC3)ccc1OC(F)F)c1cnn2cccnc12` [Example 18, N-[3-[2-(difluoromethoxy)-5-(1,2,3,4-tetrahydroisoquinolin-7-yloxy)phenyl]-1H-pyrazol-4-yl]pyrazolo[1,5-a]pyrimidine-3-carboxamide], the inhibition constant (Ki) in assay [1] and in assay [3] was 0.17 nM in each case. Also, the IC50 in assay [2] amounted to 32 nM.
On to `NCc1cc(Oc2ccc(OC(F)F)c(-c3n[nH]cc3NC(=O)c3cnn4cccnc34)c2)ccc1F` [Example 19, N-[3-[5-[3-(aminomethyl)-4-fluoro-phenoxy]-2-(difluoromethoxy)phenyl]-1H-pyrazol-4-yl]pyrazolo[1,5-a]pyrimidine-3-carboxamide], for which the Ki was 0.39 nM in assay [1] and 0.28 nM in assay [3]. In addition, the IC50 in assay [2] was 49 nM.
With `Cn1cc(NC(=O)c2cnn3cccnc23)c(-c2cc(Oc3ccc(CN)cc3)ccc2OC(F)F)n1` [Example 20, N-[3-[5-[4-(aminomethyl)phenoxy]-2-(difluoromethoxy)phenyl]-1-methyl-pyrazol-4-yl]pyrazolo[1,5-a]pyrimidine-3-carboxamide], the inhibition constant (Ki) in assay [1] stood at 1.5 nM; in assay [3], 0.59 nM. Moreover, in assay [2], the IC50 amounted to 19 nM.
With `CN(Cc1cccc(Oc2ccc(OC(F)F)c(-c3nn(C)cc3NC(=O)c3cnn4cccnc34)c2)c1)CC(C)(C)C#N` [Example 21, N-[3-[5-[3-[[(2-cyano-2-methyl-propyl)-methyl-amino]methyl]phenoxy]-2-(difluoromethoxy)phenyl]-1-methyl-pyrazol-4-yl]pyrazolo[1,5-a]pyrimidine-3-carboxamide], the Ki was 1.8 nM in assay [1] and 1.3 nM in assay [3]. Moreover, the IC50 in assay [2] stood at 110 nM.
In the case of `CN(CCO)Cc1cccc(Oc2ccc(OC(F)F)c(-c3nn(C)cc3NC(=O)c3cnn4cccnc34)c2)c1` [Example 22], the Ki in assay [1] was determined as 0.34 nM; in assay [3], 0.31 nM. Further, the IC50 in assay [2] came to 22 nM.
`Cn1cc(NC(=O)c2cnn3cccnc23)c(-c2cc(Oc3cccc(CNCCO)c3)ccc2OC(F)F)n1` [Example 23, N-[3-[2-(difluoromethoxy)-5-[3-[(2-hydroxyethylamino)methyl]phenoxy]phenyl]-1-methyl-pyrazol-4-yl]pyrazolo[1,5-a]pyrimidine-3-carboxamide]: the Ki in assay [1] was 0.37 nM; in assay [3], 0.35 nM. The IC50 in assay [2] stood at 24 nM.
As for `NCc1cccc(Oc2ccc(OC(F)F)c(-c3n[nH]cc3NC(=O)c3cnn4cccnc34)c2)c1F` [Example 24, N-[3-[5-[3-(aminomethyl)-2-fluoro-phenoxy]-2-(difluoromethoxy)phenyl]-1H-pyrazol-4-yl]pyrazolo[1,5-a]pyrimidine-3-carboxamide], the inhibition constant Ki in assay [1] stood at 0.64 nM; in assay [3] it was 0.56 nM. The IC50 in assay [2] came to 22 nM.
On the same counts, the results for `Cc1ccc(Oc2ccc(OC(F)F)c(-c3n[nH]cc3NC(=O)c3cnn4cccnc34)c2)cc1` [Example 25, N-[3-[2-(difluoromethoxy)-5-(4-methylphenoxy)phenyl]-1H-pyrazol-4-yl]pyrazolo[1,5-a]pyrimidine-3-carboxamide] are 0.39 nM, 0.14 nM and 11 nM.
Take `CNCCn1cc(NC(=O)c2cnn3cccnc23)c(-c2cc(Oc3ccccc3)ccc2OC(F)F)n1` [Example 26, N-[3-[2-(difluoromethoxy)-5-phenoxy-phenyl]-1-[2 (methylamino)ethyl]pyrazol-4-yl]pyrazolo[1,5-a]pyrimidine-3-carboxamide]: the Ki in assay [1] worked out at 0.25 nM; in assay [3], 0.41 nM. Moreover, in assay [2], the IC50 is 12 nM.
In the same order, the values of `COCCNCc1cccc(Oc2ccc(OC(F)F)c(-c3nn(C)cc3NC(=O)c3cnn4cccnc34)c2)c1` [Example 27, N-[3-[2-(difluoromethoxy)-5-[3-[(2-methoxyethylamino)methyl]phenoxy]phenyl]-1-methyl-pyrazol-4-yl]pyrazolo[1,5-a]pyrimidine-3-carboxamide] are 0.73 nM, 0.55 nM and 20 nM.
As to `Cn1cc(NC(=O)c2cnn3cccnc23)c(-c2cc(Oc3cc(CN)ccc3F)ccc2OC(F)F)n1` [Example 28, N-[3-[5-[5-(aminomethyl)-2-fluoro-phenoxy]-2-(difluoromethoxy)phenyl]-1-methyl-pyrazol-4-yl]pyrazolo[1,5-a]pyrimidine-3-carboxamide], the inhibition constant Ki in assay [1] was 0.19 nM; in assay [3], 0.21 nM. Moreover, the IC50 in assay [2] stood at 19 nM.
On the same counts, the results for `Cn1cc(NC(=O)c2cnn3cccnc23)c(-c2cc(Oc3cccc(CNC4COC4)c3)ccc2OC(F)F)n1` [Example 29, N-[3-[2-(difluoromethoxy)-5-[3-[(oxetan-3-ylamino)methyl]phenoxy]phenyl]-1-methyl-pyrazol-4-yl]pyrazolo[1,5-a]pyrimidine-3-carboxamide] are 1.2 nM, 0.72 nM and 62 nM.
In the same order, the values of `CN1CCOC(c2cccc(Oc3ccc(OC(F)F)c(-c4nn(C)cc4NC(=O)c4cnn5cccnc45)c3)c2)C1` (stereo not drawn) [Example 30, N-[3-[2-(difluoromethoxy)-5-[3-(4-methylmorpholin-2-yl)phenoxy]phenyl]-1-methyl-pyrazol-4-yl]pyrazolo[1,5-a]pyrimidine-3-carboxamide] are 0.93 nM, 0.56 nM and 40 nM.
In the case of `CN1CCc2ccc(Oc3ccc(OC(F)F)c(-c4n[nH]cc4NC(=O)c4cnn5cccnc45)c3)cc2C1` [Example 36, N-[3-[2-(difluoromethoxy)-5-[(2-methyl-3,4-dihydro-1H-isoquinolin-7-yl)oxy]phenyl]-1H-pyrazol-4-yl]pyrazolo[1,5-a]pyrimidine-3-carboxamide], the Ki in assay [1] turned out to be 0.51 nM; in assay [3] it was 0.25 nM. Moreover, in assay [2], the IC50 turned out to be 11 nM.
Regarding `Cn1cc(NC(=O)c2cnn3cccnc23)c(-c2cc(Oc3cccc(CN)n3)ccc2OC(F)F)n1` [Example 39, N-[3-[5-[[6-(aminomethyl)-2-pyridyl]oxy]-2-(difluoromethoxy)phenyl]-1-methyl-pyrazol-4-yl]pyrazolo[1,5-a]pyrimidine-3-carboxamide], the results for the Ki in assay [1] and in assay [3] were 1.5 nM and 1.3 nM, respectively. For the same molecule, the IC50 in assay [2] turned out to be 35 nM.
For `Cn1cc(NC(=O)c2cnn3cccnc23)c(-c2cc(Oc3ccnc(CN)c3)ccc2OC(F)F)n1` [Example 40, N-[3-[5-[[2-(aminomethyl)-4-pyridyl]oxy]-2-(difluoromethoxy)phenyl]-1-methyl-pyrazol-4-yl]pyrazolo[1,5-a]pyrimidine-3-carboxamide], the Ki in assay [1] was determined as 0.97 nM; in assay [3] it was 0.77 nM. The IC50 in assay [2] was 51 nM.
With `O=C(Nc1cn(CCN[C@H]2C[C@H](O)C2)nc1-c1cc(Oc2ccccc2)ccc1OC(F)F)c1cnn2cccnc12` [Example 43, N-[3-[2-(difluoromethoxy)-5-phenoxy-phenyl]-1-[2-[(3-hydroxycyclobutyl)amino]ethyl]pyrazol-4-yl]pyrazolo[1,5-a]pyrimidine-3-carboxamide], the inhibitory constant (Ki) in assay [1] was 0.3 nM; in assay [3] it was 0.31 nM. For the same molecule, the IC50 in assay [2] is 24 nM.
On the same counts, the results for `CC(=O)c1cc(Oc2ccc(OC(F)F)c(-c3n[nH]cc3NC(=O)c3cnn4cccnc34)c2)ccc1C` [Example 44, N-[3-[5-(3-acetyl-4-methyl-phenoxy)-2-(difluoromethoxy)phenyl]-1H-pyrazol-4-yl]pyrazolo[1,5-a]pyrimidine-3-carboxamide] are 0.45 nM, 0.24 nM and 5.7 nM.

As usually defined, the Ki is a measure of affinity in units of concentration, obtained from inhibition or displacement.
